Key:
[1] = molecular target: T1, MTHFD1 recombinant human enzyme (Homo sapiens, UniProt P11586); test: MTHFD1 inhibition assay (NAD(P)H-Glo luminescence); details: MTHFD1 IC50, recombinant human enzyme 200 nM, NADP, band
T1 sequence (P11586 2-291 limits assumed): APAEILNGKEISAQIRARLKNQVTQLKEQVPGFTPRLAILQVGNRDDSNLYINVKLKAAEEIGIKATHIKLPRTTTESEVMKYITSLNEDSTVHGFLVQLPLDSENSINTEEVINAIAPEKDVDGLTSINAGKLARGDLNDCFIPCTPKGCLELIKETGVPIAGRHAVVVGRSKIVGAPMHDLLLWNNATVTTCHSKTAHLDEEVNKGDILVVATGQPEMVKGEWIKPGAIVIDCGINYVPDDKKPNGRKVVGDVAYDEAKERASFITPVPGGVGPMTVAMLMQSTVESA

[2] = molecular target: T2, MTHFD2 recombinant human enzyme (Homo sapiens, UniProt P13995); test: MTHFD2 inhibition assay (NAD(P)H-Glo luminescence); details: for MTHFD1/MTHFD2 IC50 ratio: selectivity of MTHFD2 inhibition over MTHFD1, band
T2 sequence (P13995 36-350): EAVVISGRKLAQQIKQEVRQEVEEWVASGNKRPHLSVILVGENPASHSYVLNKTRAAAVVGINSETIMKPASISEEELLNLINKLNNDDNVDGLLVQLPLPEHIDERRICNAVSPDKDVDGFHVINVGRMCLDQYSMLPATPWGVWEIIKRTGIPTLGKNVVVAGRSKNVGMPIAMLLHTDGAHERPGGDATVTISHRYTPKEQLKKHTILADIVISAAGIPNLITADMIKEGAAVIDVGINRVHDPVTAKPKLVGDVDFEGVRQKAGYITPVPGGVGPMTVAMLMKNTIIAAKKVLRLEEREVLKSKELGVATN

Row | Structure (SMILES) | IC50 [1] | IC50 [2] | MTHFD1/MTHFD2 IC50 ratio [2]
1 | COC[C@H]1CN(c2cc(C)c3c4c(c(=O)oc3c2)CN(C(=O)c2ccc(C(=O)NS(=O)(=O)N3CCCC3)c(OC3CCCC3)c2F)CC4)CCN1C [Example 187, (R)-2-(cyclopentyloxy)-3-fluoro-4-(8-(3-(methoxymethyl)-4-methylpiperazin-1-yl)-10-methyl-5-oxo-1,3,4,5-tetrahydro-2H-chromeno[3,4-c]pyridine-3-carbonyl)-N-(pyrrolidin-1-ylsulfonyl)benzamide] | > 5000 nM | 100 to 1000 nM | H (>9.0 to 30)
2 | COC[C@H]1CN(c2ccc3c4c(c(=O)oc3c2C)CN(C(=O)c2ccc(C(=O)NS(=O)(=O)N3CCCC3)c(OC3CCC3)c2F)CC4)CCN1C1CC1 [Example 173, (R)-2-cyclobutoxy-4-(8-(4-cyclopropyl-3-(methoxymethyl)piperazin-1-yl)-7-methyl-5-oxo-1,3,4,5-tetrahydro-2H-chromeno[3,4-c]pyridine-3-carbonyl)-3-fluoro-N-(pyrrolidin-1-ylsulfonyl)benzamide] | 1000 to 5000 nM | 1000 to 5000 nM | F (<3)
3 | COC[C@H]1CN(c2cc(C)c3c4c(c(=O)oc3c2C)CN(C(=O)c2ccc(C(=O)NS(=O)(=O)C3(C)CC3)c(N3CCC[C@H]3C)c2)CC4)CCN1C [Example 123, 4-(8-((R)-3-(methoxymethyl)-4-methylpiperazin-1-yl)-7,10-dimethyl-5-oxo-1,3,4,5-tetrahydro-2H-chromeno[3,4-c]pyridine-3-carbonyl)-N-((1-methylcyclopropyl)sulfonyl)-2-((R)-2-methylpyrrolidin-1-yl)benzamide] | 100 to 1000 nM | 10 to 100 nM | F (<3)
4 | COC[C@H]1CN(c2ccc3c4c(c(=O)oc3c2C)CN(C(=O)c2ccc(C(=O)NS(=O)(=O)C3(C)CC3)c(N3C5CCC3CC5)c2)CC4)CCN1C [Example 17, (R)-2-(7-azabicyclo[2.2.1]heptan-7-yl)-4-(8-(3-(methoxymethyl)-4-methylpiperazin-1-yl)-7-methyl-5-oxo-1,3,4,5-tetrahydro-2H-chromeno[3,4-c]pyridine-3-carbonyl)-N-((1-methylcyclopropyl)sulfonyl)benzamide] | 1 to 10 nM | 10 to 100 nM | F (<3)
5 | COC[C@H]1CN(c2cc(C)c3c4c(c(=O)oc3c2C)CN(C(=O)c2ccc(C(=O)NS(=O)(=O)C3(C)CC3)c(N3CCC3)c2)CC4)CCN1C [Example 91, (R)-2-(azetidin-1-yl)-4-(8-(3-(methoxymethyl)-4-methylpiperazin-1-yl)-7,10-dimethyl-5-oxo-1,3,4,5-tetrahydro-2H-chromeno[3,4-c]pyridine-3-carbonyl)-N-((1-methylcyclopropyl)sulfonyl)benzamide] | 1 to 10 nM | 1 to 10 nM | G (^ 3 to 9.0)
6 | COC[C@H]1CN(c2cc(C)c3c4c(c(=O)oc3c2C)CN(C(=O)c2ccc(C(=O)NS(=O)(=O)C3(C)CC3)c(OC3C[C@@H]5C[C@@H]5C3)c2F)CC4)CCN1C (stereo partly drawn) [Example 37, 2-(((1R,3r,5S)-bicyclo[3.1.0]hexan-3-yl)oxy)-3-fluoro-4-(8-((R)-3-(methoxymethyl)-4-methylpiperazin-1-yl)-7,10-dimethyl-5-oxo-1,3,4,5-tetrahydro-2H-chromeno[3,4-c]pyridine-3-carbonyl)-N-((1-methylcyclopropyl)sulfonyl)benzamide] | 1 to 10 nM | 1 to 10 nM | F (<3)
7 | COC[C@H]1CN(c2cc(C)c3c4c(c(=O)oc3c2C)CN(C(=O)c2cc(OC3CCC3)cc(C(=O)NS(=O)(=O)N3CCCC3)c2)CC4)CCN1C [Example 164, (R)-3-cyclobutoxy-5-(8-(3-(methoxymethyl)-4-methylpiperazin-1-yl)-7,10-dimethyl-5-oxo-1,3,4,5-tetrahydro-2H-chromeno[3,4-c]pyridine-3-carbonyl)-N-(pyrrolidin-1-ylsulfonyl)benzamide] | > 5000 nM | 100 to 1000 nM | H (>9.0 to 30)
8 | COC[C@H]1CN(c2cc(C)c3c4c(c(=O)oc3c2C)CN(C(=O)c2ccc(C(=O)NS(=O)(=O)N(C)C)c(N3C5CCC3CC5)c2)CC4)CCN1C [Example 49, (R)-2-(7-azabicyclo[2.2.1]heptan-7-yl)-N-(N,N-dimethylsulfamoyl)-4-(8-(3-(methoxymethyl)-4-methylpiperazin-1-yl)-7,10-dimethyl-5-oxo-1,3,4,5-tetrahydro-2H-chromeno[3,4-c]pyridine-3-carbonyl)benzamide] | 1 to 10 nM | 1 to 10 nM | F (<3)
9 | COC[C@H]1CN(c2cc(Cl)c3c4c(c(=O)oc3c2C)CN(C(=O)c2cc(OC3CC3)c(C(=O)NS(=O)(=O)N3C5CCC3COC5)cc2F)CC4)CCN1C [Example 307, N-((3-oxa-8-azabicyclo[3.2.1]octan-8-yl)sulfonyl)-4-(10-chloro-8-((R)-3-(methoxymethyl)-4-methylpiperazin-1-yl)-7-methyl-5-oxo-1,3,4,5-tetrahydro-2H-chromeno[3,4-c]pyridine-3-carbonyl)-2-cyclopropoxy-5-fluorobenzamide] | 1000 to 5000 nM | 10 to 100 nM | 
10 | COC[C@H]1CN(c2cc(C)c3c4c(c(=O)oc3c2C)CN(C(=O)c2ccc(C(=O)NS(=O)(=O)N3CCCC3)cc2Cl)CC4)CCN1C [Example 184, (R)-3-chloro-4-(8-(3-(methoxymethyl)-4-methylpiperazin-1-yl)-7,10-dimethyl-5-oxo-1,3,4,5-tetrahydro-2H-chromeno[3,4-c]pyridine-3-carbonyl)-N-(pyrrolidin-1-ylsulfonyl)benzamide] | 1000 to 5000 nM | 100 to 1000 nM | J (>30)

Results, then the compound that gave them:

Row | IC50 [1] | IC50 [2] | MTHFD1/MTHFD2 IC50 ratio [2] | Structure (SMILES)
11 | 100 to 1000 nM | 10 to 100 nM | H (>9.0 to 30) | COC[C@H]1CN(c2cc(C)c3c4c(c(=O)oc3c2C)CN(C(=O)c2ccc(C(=O)NS(=O)(=O)N3CCCCC3)c(OC)c2F)CC4)CCN1C [Example 239]
12 | 10 to 100 nM | 10 to 100 nM | F (<3) | CCOc1c(C(=O)NS(=O)(=O)N2CC3CC3C2)ccc(C(=O)N2CCc3c(c(=O)oc4c(Cl)c(N5CCN(C)[C@@H](COC)C5)ccc34)C2)c1F (stereo partly drawn) [Example 208, N-((3-azabicyclo[3.1.0]hexan-3-yl)sulfonyl)-4-(7-chloro-8-((R)-3-(methoxymethyl)-4-methylpiperazin-1-yl)-5-oxo-1,3,4,5-tetrahydro-2H-chromeno[3,4-c]pyridine-3-carbonyl)-2-ethoxy-3-fluorobenzamide]
13 | 100 to 1000 nM | 10 to 100 nM | H (>9.0 to 30) | COC[C@H]1CN(c2cc(Cl)c3c4c(c(=O)oc3c2C)CN(C(=O)c2ccc(C(=O)NS(=O)(=O)N3CC5CC5C3)c(OC)c2)CC4)CCN1C (stereo partly drawn) [Example 280, N-((3-azabicyclo[3.1.0]hexan-3-yl)sulfonyl)-4-(10-chloro-8-((R)-3-(methoxymethyl)-4-methylpiperazin-1-yl)-7-methyl-5-oxo-1,3,4,5-tetrahydro-2H-chromeno[3,4-c]pyridine-3-carbonyl)-2-methoxybenzamide]
14 | 1000 to 5000 nM | 10 to 100 nM | J (>30) | COC[C@H]1CN(c2cc(C)c3c4c(c(=O)oc3c2C)CN(C(=O)c2ccc(C(=O)NS(=O)(=O)N3CCC(F)CC3)cc2F)CC4)CCN1C [Example 204, (R)-3-fluoro-N-((4-fluoropiperidin-1-yl)sulfonyl)-4-(8-(3-(methoxymethyl)-4-methylpiperazin-1-yl)-7,10-dimethyl-5-oxo-1,3,4,5-tetrahydro-2H-chromeno[3,4-c]pyridine-3-carbonyl)benzamide]
15 | 100 to 1000 nM | 10 to 100 nM | H (>9.0 to 30) | CCOc1cc(C(=O)N2CCc3c(c(=O)oc4c(C)c(N5CCN(C)[C@@H](COC)C5)cc(C)c34)C2)c(F)cc1C(=O)NS(=O)(=O)N1CC2(CCC2)C1 [Example 220, (R)-N-((2-azaspiro[3.3]heptan-2-yl)sulfonyl)-2-ethoxy-5-fluoro-4-(8-(3-(methoxymethyl)-4-methylpiperazin-1-yl)-7,10-dimethyl-5-oxo-1,3,4,5-tetrahydro-2H-chromeno[3,4-c]pyridine-3-carbonyl)benzamide]
16 | 100 to 1000 nM | 10 to 100 nM |  | COC[C@H]1CN(c2cc(C)c3c4c(c(=O)oc3c2C)CN(C(=O)c2cc(N(C)C)c(C(=O)NS(=O)(=O)N3CCC(C(F)(F)F)CC3)cc2F)CC4)CCN1C [Example 296, (R)-2-(dimethylamino)-5-fluoro-4-(8-(3-(methoxymethyl)-4-methylpiperazin-1-yl)-7,10-dimethyl-5-oxo-1,3,4,5-tetrahydro-2H-chromeno[3,4-c]pyridine-3-carbonyl)-N-((4-(trifluoromethyl)piperidin-1-yl)sulfonyl)benzamide]
